A short description of data set [1]: Stability in water/D2O buffered at different pH values, tracked by 1H NMR. The format is physicochemical. The conditions noted are these: for half-life: buffered water/D2O, read-out: estimated half-life (converted); for degradation: pH 5.8, 9 days. The text has this: The ^1H NMR spectra of NAC and the disulfide, trisulfide, and tetrasulfide of NAC had peaks at unique values for chemical shifts and allowed for their easy characterization (Figure 3). Pure chemicals of each sulfide were synthesized and characterized by ^1H and ^13C NMR spectroscopy as well as by high-resolution mass spectroscopy. The unique chemical shifts of the peaks for the Ha and Hb/Hc protons on the sulfides allowed the integration of each sulfide to be determined.
The stability of NAC trisulfide in water buffered at pH values of 5.8, 7.4, and 9.0 was measured.
The stability of cysteine trisulfide was investigated in buffered water at pH values of 5.8, 7.0, and 9.0. […] At pH values of 5.8, 7.0, and 9.0, the cysteine trisulfide was soluble and its ^1H NMR spectra were obtained.
The stability of glutathione trisulfide was investigated at pH values of 5.8, 7.4, and 9.0 (Figure S14a). The degradation of glutathione trisulfide was more rapid at pH values of 5.8 and 7.4 than that of the trisulfides of NAC and cysteine. At an acidic pH of 5.8, 71% of glutathione trisulfide degraded after 10 days. At pH values of 7.4 and 9.0, glutathione trisulfide degraded 79 and 81%, respectively, at day 9. […] The degradation of glutathione trisulfide reached an equilibrium of approximately 20% with the disulfide due to the reaction catalyzed by amine with elemental sulfur. Rate constants and half-lives were obtained for the degradation of glutathione trisulfide at each pH value using early data points unaffected by the equilibrium. At pH values of 5.8, 7.4, and 9.0, the estimated half-lives were 6.3 days (151 h), 0.90 days (21.6 h), and 0.79 days (19.0 h), respectively (Figure S14b).
The stability of NAC tetrasulfide was investigated in D2O buffered at pH values of 5.8, 7.4, and 9.0 (Figure S16a). At a pH of 5.8, NAC tetrasulfide degraded by 13% after 9 days. At pH values of 7.4 and 9.0, the tetrasulfide degraded by 55 and 52%, respectively, after 9 days. At each pH, the degradation product was NAC trisulfide, elemental sulfur, and a small amount of NAC disulfide (<3%). […] Estimated rate constants and half-lives for the degradation of NAC tetrasulfide at each pH were obtained. At pH values of 5.8, 7.4, and 9.0, the estimated half-lives were 53.3, 7.5, and 8.2 days, respectively (Figure S16b).

Data set [2] can be described thus: Stability in D2O in the presence of butylamine or triethylamine, tracked by 1H NMR. In kind it is physicochemical. The note with it: for degraded: after 1 day; for tetrasulfide present: butylamine and triethylamine. As to the method:
N-Acetylcysteine trisulfide (26.5 mg, 66 μmol) was dissolved in 600 μL of D2O. Butylamine (5.0 mg, 68 μmol) was added, and the ^1H NMR spectra were taken periodically to track degradation.
N-Acetylcysteine trisulfide (26.5 mg, 66 μmol) was dissolved in 600 μL of D2O. Triethylamine (8.0 mg, 79 μmol) was added, and the ^1H NMR spectra were taken periodically to track degradation.
Cysteine trisulfide (5.5 mg, 20 μmol) was added to 600 μL of D2O. The solution was filtered to remove undissolved particles. […] The ^1H NMR spectra were taken periodically to track degradation.
Cysteine trisulfide (4.3 mg, 16 μmol) was added to 600 μL of D2O. The solution was filtered to remove undissolved particles. […] The ^1H NMR spectra were taken periodically to track degradation.
N-Acetylcysteine tetrasulfide (17.2 mg, 44 μmol) was dissolved in 600 μL of D2O. Butylamine (9.9 mg, 135 μmol) was added, and the ^1H NMR spectra were taken periodically to track degradation.
N-Acetylcysteine tetrasulfide (17.2 mg, 44 μmol) was dissolved in 600 μL of D2O. Triethylamine (13.5 mg, 135 μmol) was added, and the ^1H NMR spectra were taken periodically to track degradation.

Data set [3] in a line: Stability in the presence of acetonitrile, benzamide, zinc sulfate or iron sulfate, or in methanol-d4 (1H NMR). The format is physicochemical. The note with it: 3:1 mole ratio acetonitrile or benzamide, D2O, after 12 days. As to the method:
N-Acetylcysteine trisulfide (26.5 mg, 66 μmol) was dissolved in 600 μL of D2O. Acetonitrile (3.0 mg, 73 μmol) was added, and the ^1H NMR spectra were taken periodically to track degradation.
N-Acetylcysteine trisulfide (31.4 mg, 78 μmol) was dissolved in 600 μL of D2O. Benzamide (9.4 mg, 78 μmol) was added, and the ^1H NMR spectra were taken periodically to track degradation.
N-Acetylcysteine trisulfide (15.0 mg, 38 μmol) was dissolved in 600 μL of D2O. ZnSO4 (11.8 mg, 73 μmol) was added, and the ^1H NMR spectra were taken periodically to track degradation.
N-Acetylcysteine trisulfide (15.0 mg, 38 μmol) was dissolved in 600 μL of D2O. FeSO4·7H2O (11.6 mg, 41 μmol) was added, and the ^1H NMR spectra were taken periodically to track degradation.
N-Acetylcysteine trisulfide (32.1 mg, 80 μmol) was dissolved in 600 μL of CD3OD. The ^1H NMR spectra were taken periodically to track degradation.
Cysteine trisulfide (5.1 mg, 19 μmol) was added to 600 μL of D2O. Solution was filtered to remove undissolved particles. […] The ^1H NMR spectra were taken periodically to track degradation.
Cysteine trisulfide (6.8 mg, 25 μmol) was added to 600 μL of D2O. Solution was filtered to remove undissolved particles. […] The ^1H NMR spectra were taken periodically to track degradation.

A short description of another data set: Solubility observations. In kind it is physicochemical.
The nature of data set [4]: Equilibrium between di-, tri- and tetrasulfides in the presence of elemental sulfur (1H NMR). In kind it is physicochemical. The conditions noted are these: D2O with elemental sulfur and butylamine, after 4 days.
Procedure: To test this hypothesis, a reaction was completed in D2O with elemental sulfur, NAC disulfide, and butylamine.
To understand why the degradation leveled off, NAC trisulfide was dissolved in water, elemental sulfur was added, and the contents were heated to 40 °C.
N-Acetylcysteine disulfide (9.3 mg, 23 μmol) was dissolved in 600 μL of D2O. Elemental sulfur (6.8 mg, 0.21 mmol) and butylamine (18.5 mg, 0.25 mmol) were added, and the ^1H NMR spectra were periodically obtained to track the equilibrium.
For data set [5] the following is noted: no reference given, cited from earlier work.
The conditions of data set [6]: cited from earlier work.
A short description of data set [7]: Stability in nonbuffered D2O at room and elevated temperature (1H NMR). The format is physicochemical. The conditions noted are these: nonbuffered D2O. As to the method:
N-Acetylcysteine trisulfide (24.3 mg, 61 μmol) was dissolved in 500 μL of D2O and placed in a 40 °C oil bath. The ^1H NMR spectra were taken periodically to track degradation.
N-Acetylcysteine trisulfide (24.3 mg, 61 μmol) was dissolved in 500 μL of D2O and placed in a 60 °C oil bath. The ^1H NMR spectra were taken periodically to track degradation.
N-Acetylcysteine tetrasulfide (8.0 mg, 21 μmol) was dissolved in 600 μL of D2O. The ^1H NMR spectra were taken periodically to track degradation.
N-Acetylcysteine tetrasulfide (10.0 mg, 26 μmol) was dissolved in 600 μL of D2O and placed in a 40 °C oil bath. The ^1H NMR spectra were taken periodically to track degradation.

Where two headings read alike, the source gives them in different places.

The term half-life denotes how long it takes for the measured level to halve. `N[C@@H](CSSSC[C@H](N)C(=O)O)C(=O)O` [cysteine trisulfide, Cysteine Trisulfide]: the stability result in data set [1] (basic conditions (abstract)) is on record as “unstable”. Also, the half-life in data set [1] (pH 7, pH 7.0) was 406 h; in data set [1] (pH 9, pH 9.0), 274 h; in data set [2] (D2O with butylamine, in the presence of butylamine, D2O, early data points, read-out: estimated half-life of degradation (converted)), 2.3 h; in data set [2] (D2O with triethylamine, in the presence of triethylamine, D2O, early data points, read-out: estimated half-life of degradation (converted)), 2.9 h. Moreover, the degradation is below 3% in data set [1] and “no observable degradation” in data set [3]. Also, the degraded in data set [1] (pH 7.0, after 13 days) was determined as 40%; in data set [1] (pH 9.0, after 13 days), 56%; in data set [2] (in the presence of butylamine, D2O), 63%; in data set [2] (in the presence of triethylamine, D2O) it was 78%. For the same compound, the “trisulfide remaining (degradation leveled off)” value in data set [2] (after 10 days in the presence of butylamine and triethylamine, D2O) is on record as “approximately 20%”. The solubility result in “Solubility observations” (buffered water pH 5.8, 7.0 and 9.0) was “soluble”; in the data set “Solubility observations” (buffered water pH 7.4), “poorly soluble”.

Take `CC(=O)N[C@@H](CSSC[C@H](NC(C)=O)C(=O)O)C(=O)O` [NAC disulfide, N-Acetylcysteine disulfide, reference compound]: in data set [4], the converted to trisulfide was determined as 15%.

A word on the pKa: it is the negative logarithm of the acid dissociation constant. As for `N[C@@H](CS)C(=O)O` [cysteine], in data set [5] (ammonium group), the pKa is recorded as 10.8.

As for `S` [H2S, hydrogen sulfide], the pKa in data set [5] is listed as 7.0.

With `C=CCSSSCC=C` [DATS, diallyl trisulfide], the degradation result in data set [6] (in the presence of glutathione (GSH)) is given as “degraded rapidly”. For the same compound, the stability result in data set [6] (micellar solution (propylene glycol, ethanol, Tween 80, water), pH 2.6 to 7.0, 15 min, HPLC) is recorded as “stable”; in data set [6] (neat, 4 °C, after 3 months, HPLC) it was “stable”; in data set [6] (same micellar solution, in the presence of antioxidants), “not stable”. Further, the degraded in data set [6] (neat, 35 °C, after 3 months, HPLC) was 30%; in data set [6] (neat, room temperature, after 3 months, HPLC) it was 11%.

With `CSSSC` [DMTS, dimethyl trisulfide], the degradation result in data set [6] (neat, 4 and 22 °C, over 1 year) is recorded as “no degradation”. For the same compound, the degraded in data set [6] (neat, 34 °C, over 1 year) is reported as 70%.

On to `CC(=O)NC(CSSSSCC(NC(C)=O)C(=O)O)C(=O)O` (centres unmarked) [NAC tetrasulfide, N-Acetylcysteine Tetrasulfide], for which the half-life in data set [1] (pH 5.8, pH 5.8) is 1280 h; in data set [1] (pH 7.4, pH 7.4) it was 180 h; in data set [1] (pH 9, pH 9.0) it was 197 h; in data set [2] (D2O with butylamine, in the presence of butylamine (abstract), read-out: half-life), at most 0.025 h. The degradation came out at 13% in data set [1] and 83% in data set [7] (40 °C, after 63 days). In addition, the degraded in data set [1] (pH 7.4, day 9) was determined as 55%; in data set [1] (pH 9.0, day 9), 52%; in data set [7] (40 °C, after 20 days) it was 83%; in data set [7] (room temperature, after 35 days), 69%. Further, in data set [2] (D2O with butylamine or triethylamine, in the presence of butylamine and triethylamine (both amines), read-out: upper limit of the half-life), the half-life at 73 mM is at most 1.6 min. Moreover, the tetrasulfide present result in data set [2] (after 5 min) is reported as “less than 10%”; in data set [2] (after a day), 4%. Besides, the estimated rate constant in data set [7] (40 °C) is recorded as 8.7 × 10^–2 days^–1; in data set [7] (room temperature) it was 3.9 × 10^–2 days^–1. The half-life at 43 mM in data set [7] (40 °C, read-out: estimated half-life (converted)) is 192 h. Further, in data set [7] (room temperature, read-out: estimated half-life (converted)), the half-life at 35 mM was 427 h. For the same compound, the stability entry in data set [6] (in the presence of thiols, released H2S) is reported as “unstable”.

Turning to `N[C@@H](CCC(=O)N[C@@H](CS)C(=O)NCC(=O)O)C(=O)O` [glutathione], the pKa in data set [5] (ammonium group) is on record as 9.6.

(Values after article PMC8992272, “Stabilities of Three Key Biological Trisulfides with Implications for Their Roles in the Release of Hydrogen Sulfide and Bioaccumulation of Sulfane Sulfur” (ACS Omega, 2022).)
